Results published in BindingDB's records for doi:10.1016/S0960-894X(01)80562-X (1994).

Target: Angiotensin-converting enzyme (Rattus norvegicus) (UniProt P47820)
Assay: In vitro inhibitory activity against angiotensin converting enzyme (ACE) in rat was determined

Angiotensin-converting enzyme (Rattus norvegicus), sequence (P47820 whole entry, looked up): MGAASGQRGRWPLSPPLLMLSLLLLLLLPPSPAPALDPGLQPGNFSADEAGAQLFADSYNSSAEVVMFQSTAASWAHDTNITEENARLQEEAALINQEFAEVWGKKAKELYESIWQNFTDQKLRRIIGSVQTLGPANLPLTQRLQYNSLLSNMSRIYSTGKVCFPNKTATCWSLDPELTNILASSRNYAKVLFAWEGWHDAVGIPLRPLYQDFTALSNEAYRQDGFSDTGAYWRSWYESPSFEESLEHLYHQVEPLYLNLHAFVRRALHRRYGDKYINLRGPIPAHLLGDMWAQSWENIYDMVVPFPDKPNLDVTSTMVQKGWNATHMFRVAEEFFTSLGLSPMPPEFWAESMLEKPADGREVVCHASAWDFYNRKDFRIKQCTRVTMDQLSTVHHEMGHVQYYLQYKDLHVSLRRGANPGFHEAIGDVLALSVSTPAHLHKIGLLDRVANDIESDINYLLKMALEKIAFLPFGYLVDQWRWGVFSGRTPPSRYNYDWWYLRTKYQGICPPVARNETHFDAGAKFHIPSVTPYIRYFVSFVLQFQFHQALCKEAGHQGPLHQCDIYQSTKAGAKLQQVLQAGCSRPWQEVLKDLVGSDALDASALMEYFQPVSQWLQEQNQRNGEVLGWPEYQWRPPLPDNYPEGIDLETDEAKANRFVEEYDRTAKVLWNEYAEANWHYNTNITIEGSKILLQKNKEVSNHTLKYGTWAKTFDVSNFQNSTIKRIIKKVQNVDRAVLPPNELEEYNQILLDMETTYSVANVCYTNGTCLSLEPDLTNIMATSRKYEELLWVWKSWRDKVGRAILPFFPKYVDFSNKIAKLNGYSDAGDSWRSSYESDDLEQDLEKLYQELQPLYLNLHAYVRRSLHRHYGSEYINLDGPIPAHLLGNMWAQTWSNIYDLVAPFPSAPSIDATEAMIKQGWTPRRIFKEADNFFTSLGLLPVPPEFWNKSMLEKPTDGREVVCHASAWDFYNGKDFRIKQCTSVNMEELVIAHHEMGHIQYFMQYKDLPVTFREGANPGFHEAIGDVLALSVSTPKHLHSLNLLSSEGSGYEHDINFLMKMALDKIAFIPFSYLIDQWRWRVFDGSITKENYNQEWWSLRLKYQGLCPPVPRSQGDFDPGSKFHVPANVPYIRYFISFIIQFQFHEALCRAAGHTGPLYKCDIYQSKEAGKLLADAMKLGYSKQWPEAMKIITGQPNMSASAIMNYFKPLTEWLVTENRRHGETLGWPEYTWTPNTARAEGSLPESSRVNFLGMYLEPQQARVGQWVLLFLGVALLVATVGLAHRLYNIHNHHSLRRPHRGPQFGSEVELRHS

Structure (SMILES)	IC50 [µM]
O=C(N[C@H]1CCC(=O)N2CC[C@@H](C(=O)O)N2C1=O)[C@@H](S)Cc1ccccc1	0.02
O=C(N[C@H]1CCC(=O)N2CCC[C@@H](C(=O)O)N2C1=O)[C@@H](S)Cc1ccccc1	0.007
CN1C(=O)CC[C@H](NC(=O)[C@@H](S)Cc2ccccc2)C(=O)N1CC(=O)O	0.016
CN1CCC[C@H](NC(=O)[C@@H](S)Cc2ccccc2)C(=O)N1CC(=O)O	0.016
CCCN1CCC[C@H](NC(=O)[C@@H](S)Cc2ccccc2)C(=O)N1CC(=O)O	0.006
CCCN1C(=O)CC[C@H](NC(=O)[C@@H](S)Cc2ccccc2)C(=O)N1CC(=O)O	0.01
O=C(N[C@H]1CCCN2CC[C@@H](C(=O)O)N2C1=O)[C@@H](S)Cc1ccccc1	0.012
O=C(N[C@H]1CCCN2CCC[C@@H](C(=O)O)N2C1=O)[C@@H](S)Cc1ccccc1	0.008
O=C(O)CN1NCCC[C@H](NC(=O)[C@@H](S)Cc2ccccc2)C1=O	0.06
